According to patent US20260028343A1, “Substituted Imidazopyrazine Compounds as Ligand Directed Degraders of IRAK3” (Celgene Corporation, priority 2022, published 2026):

How the values were obtained:
IRAK3 [1] = target: T1, IRAK3 (Homo sapiens, UniProt Q9Y616); assay: IRAK3 Biochemical Binding Assay (LanthaScreen Eu Kinase Binding); conditions: TR-FRET tracer displacement, 1 hour at room temperature
T1 construct: IRAK Endogenous HTRF Degradation Assay; endogenous in cells
T1 sequence (Q9Y616 1-596): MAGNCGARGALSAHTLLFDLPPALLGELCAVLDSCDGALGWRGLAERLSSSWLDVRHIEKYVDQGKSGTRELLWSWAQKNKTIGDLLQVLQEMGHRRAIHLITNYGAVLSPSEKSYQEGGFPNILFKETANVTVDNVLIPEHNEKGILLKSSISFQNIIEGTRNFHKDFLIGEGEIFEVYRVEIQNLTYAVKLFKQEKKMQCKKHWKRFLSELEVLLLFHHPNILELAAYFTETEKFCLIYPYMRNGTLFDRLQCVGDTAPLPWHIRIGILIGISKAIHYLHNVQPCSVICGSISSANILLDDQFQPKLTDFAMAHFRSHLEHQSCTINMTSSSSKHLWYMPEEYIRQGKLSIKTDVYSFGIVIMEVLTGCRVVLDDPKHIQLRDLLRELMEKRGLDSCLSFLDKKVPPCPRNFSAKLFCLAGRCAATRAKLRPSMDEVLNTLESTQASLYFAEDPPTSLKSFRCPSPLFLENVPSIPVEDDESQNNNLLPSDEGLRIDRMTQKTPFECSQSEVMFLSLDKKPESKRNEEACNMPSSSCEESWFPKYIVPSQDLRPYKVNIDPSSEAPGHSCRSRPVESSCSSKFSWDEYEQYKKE
Description: The LanthaScreen® Eu Kinase Binding assay was performed as described by the vendor (ThermoFisher Scientific Waltham, MA). Briefly, 100× solutions of compound were prepared in DMSO via serial dilution of the 10 mM stock solution in a 384-well reagent plate using 3-fold intervals to achieve final concentrations. 1 μL of the compound dilution series were added to the corresponding wells of a 384-well reagent plate containing 32.3 μL of 1× buffer (50 mM HEPES pH 7.4, […], 1 mM EGTA, 0.01% Brij-35). 5 μL of the buffer diluted compounds were transferred to the corresponding wells of a 384-well assay plate. 5 μL of 3× tracer was transferred to each well of the assay plate for a final tracer concentration of 10 nM. Finally, 5 μL of the 3× Eu-Anti-GST and IRAK3 mix was transferred to each well for a final concentration of 2 nM and 10 nM respectively. Reactions were allowed to incubate for 1 hour at room temperature. TR-FRET signal of the interaction (λex340/λem 665/λem 615) was read at room temperature with a delay time of 100 μs and an integration time of 200 μs using an Envision plate reader. Background corrected emission signal ratios at each compound concentration were used to calculate percentage of inhibition (% Inhibition). Plots of % Inhibition versus inhibitor concentrations were fit according to a dose-response equation (Eq. 1) to generate IC50 and Hill slope values using Dotmatics software (Dotmatics, Bishops Stortford, Hertfordshire, England).
(§1) Using these assays, IC50, Dmax, EC50, and DC50 values of the following compounds were determined. Dmax is defined as the maximum percent degradation achieved and DC50 is the concentration at which 50% degradation is achieved.

IRAK3 [2] = target: T1, IRAK3; assay: IRAK Endogenous HTRF Degradation Assay; format: cell-based; conditions: endogenous IRAK3, overnight incubation; for Dmax: % Dmax=100−Ymin; for DC50: concentration at which 50% degradation is achieved
Description: Cells (˜50 k) were plated in Cisbio 96-well low volume white plates (Cisbio: cat #66PL96005). Compounds were dissolved in DMSO and a 3-fold serial dilution was performed using a TECAN D300E. Cells were incubated with the compound overnight. Total-IRAK3 HTRF kit from Cisbio was used for degradation analysis (Cisbio: 63ADK101PEH). Cryptate and D2 antibodies were diluted in Detection buffer as per manufacturers recommendation. Then 2 μL of each solution was added to 16 μL lysate. Buffer control (lysis buffer detection buffer), Cryptate control (lysis buffer+cryptate antibody+detection buffer), and Negative control (lysis buffer+cryptate antibody+D2 antibody) were made as per manufacturers recommendation. Post incubation with antibodies the HTRF signal was measured using a Perkin Elmer Envision reader and the HTRF signal was calculated using formula: (Emission at 665 nm/Emission at 615 nm)*10,000. All HTRF values were normalized to the average value of DMSO. The average value of the DMSO control wells were set to equal 100% of the relative IRAK3 protein levels. Normalized luminescence values were plotted on a graph as a function of compound concentration. Compound concentration was plotted on the x-axis and the corresponding normalized IRAK3 protein levels on the y-axis. The EC50 value (the half-maximum effective concentration) of a compound for the degradation of the IRAK3 was calculated using a four-parameter logistic model (sigmoidal dose−response model)(FIT=(A+{(B−A)/1+[(C/x)D]})) where C is the inflection point (EC50), D is the […], and A and B are the low and high limits of the fit, respectively). The Ymin was calculated by determining the lowest percentage of target protein remaining following compound treatment. Dmax was calculated from Ymin (% Dmax=100−Ymin).
as §1

With Cc1cccc(-c2cnc(Nc3ccc(N4CCN(C(=O)CCCNC(=O)COc5cccc6c5C(=O)N(C5CCC(=O)NC5=O)C6=O)CC4)cc3)c3nccn23)c1 (stereo not drawn) [Compound 2, 2-((2-(2,6-Dioxopiperidin-3-yl)-1,3-dioxoisoindolin-4-yl)oxy)-N-(4-oxo-4-(4-(4-((5-(m-tolyl)imidazo[1,2-a]pyrazin-8-yl)amino)phenyl)piperazin-1-yl)butyl)acetamide] the IC50 (IRAK3 [1]) was 30 nM, the Dmax (IRAK3 [2]) was 13% and the DC50 (IRAK3 [2]) was greater than 10000 nM.

In the case of Cc1cccc(-c2cnc(Nc3ccc(N4CCN(C(=O)CCOCCNC(=O)COc5ccc6c(c5)C(=O)N(C5CCC(=O)NC5=O)C6=O)CC4)cc3)c3nccn23)c1 (stereo not drawn) [Compound 6, 2-((2-(2,6-Dioxopiperidin-3-yl)-1,3-dioxoisoindolin-5-yl)oxy)-N-(2-(3-oxo-3-(4-(4-((5-(m-tolyl)imidazo[1,2-a]pyrazin-8-yl)amino)phenyl)piperazin-1-yl)propoxy)ethyl)acetamide], the IC50 (IRAK3 [1]) is reported as 83 nM, the Dmax (IRAK3 [2]) is reported as 13% and the DC50 (IRAK3 [2]) is reported as greater than 10000 nM.

Cc1cccc(-c2cnc(Nc3ccc(N4CCN(C(=O)COc5cccc6c5C(=O)N(C5CCC(=O)NC5=O)C6=O)CC4)cc3)c3nccn23)c1 (stereo not drawn) [Compound 1, 2-(2,6-Dioxopiperidin-3-yl)-4-(2-oxo-2-(4-(4-((5-(m-tolyl)imidazo[1,2-a]pyrazin-8-yl)amino)phenyl)piperazin-1-yl)ethoxy)isoindoline-1,3-dione] gave an IC50 (IRAK3 [1]) of 278 nM, a Dmax (IRAK3 [2]) of 7% and a DC50 (IRAK3 [2]) greater than 10000 nM.

With Cc1cccc(-c2cnc(Nc3ccc(N4CCN(C(=O)COc5ccc6c(c5)C(=O)N(C5CCC(=O)NC5=O)C6=O)CC4)cc3)c3nccn23)c1 (stereo not drawn) [Compound 4, 2-(2,6-Dioxopiperidin-3-yl)-5-(2-oxo-2-(4-(4-((5-(m-tolyl)imidazo[1,2-a]pyrazin-8-yl)amino)phenyl)piperazin-1-yl)ethoxy)isoindoline-1,3-dione] the IC50 (IRAK3 [1]) was 128 nM, the Dmax (IRAK3 [2]) was 4% and the DC50 (IRAK3 [2]) was greater than 10000 nM.

Cc1cccc(-c2cnc(Nc3cccc(C4CCN(CCNC(=O)COc5ccc6c(c5)C(=O)N(C5CCC(=O)NC5=O)C6=O)CC4)c3)c3nccn23)c1 (stereo not drawn) [Compound 9, 2-((2-(2,6-Dioxopiperidin-3-yl)-1,3-dioxoisoindolin-5-yl)oxy)-N-(2-(4-(3-((5-(m-tolyl)imidazo[1,2-a]pyrazin-8-yl)amino)phenyl)piperidin-1-yl)ethyl)acetamide] showed an IC50 (IRAK3 [1]) of 214 nM, a Dmax (IRAK3 [2]) of 33% and a DC50 (IRAK3 [2]) greater than 10000 nM.

Cc1cccc(-c2cnc(Nc3ccc(N4CCN(CCNC(=O)COc5ccc6c(c5)C(=O)N(C5CCC(=O)NC5=O)C6=O)CC4)cc3)c3nccn23)c1 (stereo not drawn) [Compound 7, 2-((2-(2,6-Dioxopiperidin-3-yl)-1,3-dioxoisoindolin-5-yl)oxy)-N-(2-(4-(4-((5-(m-tolyl)imidazo[1,2-a]pyrazin-8-yl)amino)phenyl)piperazin-1-yl)ethyl)acetamide] was tested, and the IC50 (IRAK3 [1]) was 33 nM, the Dmax (IRAK3 [2]) was 27% and the DC50 (IRAK3 [2]) was greater than 10000 nM.

Compound Cc1cccc(-c2cnc(Nc3ccc(C4CCN(CCNC(=O)COc5ccc6c(c5)C(=O)N(C5CCC(=O)NC5=O)C6=O)CC4)cc3)c3nccn23)c1 (stereo not drawn) [Compound 10, 2-((2-(2,6-Dioxopiperidin-3-yl)-1,3-dioxoisoindolin-5-yl)oxy)-N-(2-(4-(4-((5-(m-tolyl)imidazo[1,2-a]pyrazin-8-yl)amino)phenyl)piperidin-1-yl)ethyl)acetamide] has an IC50 (IRAK3 [1]) of 236 nM, a Dmax (IRAK3 [2]) of 30% and a DC50 (IRAK3 [2]) greater than 10000 nM.

Work on Cc1cccc(-c2cnc(Nc3cnn(C4CCN(C5CCC6(CC5)CCN(C(=O)c5ccc7c(c5)CN(C5CCC(=O)NC5=O)C7=O)CC6)CC4)c3)c3nccn23)c1 (stereo not drawn) [Compound 12, 3-(1-Oxo-5-(9-(4-(4-((5-(m-tolyl)imidazo[1,2-a]pyrazin-8-yl)amino)-1H-pyrazol-1-yl)piperidin-1-yl)-3-azaspiro[5.5]undecane-3-carbonyl)isoindolin-2-yl)piperidine-2,6-dione] yielded an IC50 (IRAK3 [1]) of 2 nM, a Dmax (IRAK3 [2]) of 81% and a DC50 (IRAK3 [2]) of 10 nM.

In the case of Cc1cccc(-c2cnc(Nc3cnn(C4CCN(CCNC(=O)COc5ccc6c(c5)C(=O)N(C5CCC(=O)NC5=O)C6=O)CC4)c3)c3nccn23)c1 (stereo not drawn) [Compound 8, 2-((2-(2,6-Dioxopiperidin-3-yl)-1,3-dioxoisoindolin-5-yl)oxy)-N-(2-(4-(4-((5-(m-tolyl)imidazo[1,2-a]pyrazin-8-yl)amino)-1H-pyrazol-1-yl)piperidin-1-yl)ethyl)acetamide], the IC50 (IRAK3 [1]) is reported as less than 0.5 nM, the Dmax (IRAK3 [2]) is reported as 73% and the DC50 (IRAK3 [2]) is reported as 20 nM.

Cc1cccc(-c2cnc(Nc3ccc(N4CCN(C(=O)CCOCCNC(=O)COc5cccc6c5C(=O)N(C5CCC(=O)NC5=O)C6=O)CC4)cc3)c3nccn23)c1 (stereo not drawn) [Compound 3, 2-((2-(2,6-Dioxopiperidin-3-yl)-1,3-dioxoisoindolin-4-yl)oxy)-N-(2-(3-oxo-3-(4-(4-((5-(m-tolyl)imidazo[1,2-a]pyrazin-8-yl)amino)phenyl)piperazin-1-yl)propoxy)ethyl)acetamide] was tested, and the IC50 (IRAK3 [1]) was 84 nM, the Dmax (IRAK3 [2]) was 3% and the DC50 (IRAK3 [2]) was greater than 10000 nM.

Compound Cc1cccc(-c2cnc(Nc3ccc(N4CCN(C(=O)CCCNC(=O)COc5ccc6c(c5)C(=O)N(C5CCC(=O)NC5=O)C6=O)CC4)cc3)c3nccn23)c1 (stereo not drawn) [Compound 5, 2-((2-(2,6-Dioxopiperidin-3-yl)-1,3-dioxoisoindolin-5-yl)oxy)-N-(4-oxo-4-(4-(4-((5-(m-tolyl)imidazo[1,2-a]pyrazin-8-yl)amino)phenyl)piperazin-1-yl)butyl)acetamide] has an IC50 (IRAK3 [1]) of 71 nM, a Dmax (IRAK3 [2]) of 18% and a DC50 (IRAK3 [2]) greater than 10000 nM.

Cc1cccc(-c2cnc(Nc3cccc(N4CCN(CCNC(=O)COc5ccc6c(c5)C(=O)N(C5CCC(=O)NC5=O)C6=O)CC4)c3)c3nccn23)c1 (stereo not drawn) [Compound 11, 2-((2-(2,6-Dioxopiperidin-3-yl)-1,3-dioxoisoindolin-5-yl)oxy)-N-(2-(4-(3-((5-(m-tolyl)imidazo[1,2-a]pyrazin-8-yl)amino)phenyl)piperazin-1-yl)ethyl)acetamide] gave an IC50 (IRAK3 [1]) of 5340 nM, a Dmax (IRAK3 [2]) of 21% and a DC50 (IRAK3 [2]) greater than 10000 nM.
